One data set has as its target S. aureus RNA polymerase (Staphylococcus aureus (strain NCTC 8325 / PS 47), UniProt P47768+Q2G0N5). The experiment in a line: Fluorescence-detected assay of inhibition of Staphylococcus aureus RNA polymerase. To be noted: read-out: RNAP-inhibitory activity S. aureus RNAP IC50. The data set is classed as biochemical. Here is the method: (§1) Fluorescence-detected RNA polymerase assays with E. coli RNA polymerase were performed by a modification of the procedure of Kuhlman et al., 2004 [Kuhlman, P., Duff, H. & Galant, A. (2004) A fluorescence-based assay for multisubunit DNA-dependent RNA polymerases. Anal. Biochem. 324, 183-190]. Reaction mixtures contained (20 μl): 0-100 nM test salt, 75 nM E. coli RNA polymerase σ^70 holoenzyme, 20 nM 384 bp DNA fragment containing the bacteriophage T4 N25 promoter, 100 μM ATP, 100 μM GTP, 100 μM UTP, 100 μM CTP, 50 mM Tris-HCl, pH 8.0, 100 mM KCl, 10 mM MgCl2, 1 mM DTT, 10 μg/ml bovine serum albumin, and 5.5% glycerol. Reaction components other than DNA and NTPs were pre-incubated for 10 min at 37° C. Reactions were carried out by addition of DNA and incubation for 5 min at 37° C., followed by addition of NTPs and incubation for 60 min at 37° C. DNA was removed by addition of 1 μl 5 mM CaCl2 and 2 U DNaseI (Ambion, Inc.), followed by incubation for 90 min at 37° C. RNA was quantified by addition of 100 μl RiboGreen RNA Quantitation Reagent (Invitrogen, Inc.; 1:500 dilution in Tris-HCl, pH 8.0, 1 mM EDTA), followed by incubation for 10 min at 25° C., followed by measurement of fluorescence intensity [excitation wavelength=485 nm and emission wavelength=535 nm; QuantaMaster QM1 spectrofluorometer (PTI, Inc.)]. IC50 is defined as the concentration of inhibitor resulting in 50% inhibition of RNA polymerase activity.
Fluorescence-detected RNA polymerase assays with S. aureus RNA polymerase were performed as in Example 17.1, using reaction mixtures containing (20 μl): 0-100 nM test salt, 75 nM S. aureus RNA polymerase core enzyme, 300 nM S. aureus σ^A, 20 nM 384 bp DNA fragment containing the bacteriophage T4 N25 promoter, 100 μM ATP, 100 μM GTP, 100 μM UTP, 100 μM CTP, 40 mM Tris-HCl, pH 8.0, 80 mM NaCl, 5 mM MgCl2, 2.5 mM DTT, and 12.7% glycerol. IC50 is defined as the concentration of inhibitor resulting in 50% inhibition of RNA polymerase activity.

The target in data set [1] is M. tuberculosis RNA polymerase (Mycobacterium tuberculosis (strain ATCC 25618 / H37Rv), UniProt P9WGY7+P9WGY9). The experiment in a line: Fluorescence-detected assay of inhibition of Mycobacterium tuberculosis RNA polymerase. The note with it: read-out: RNAP-inhibitory activity M. tuberculosis RNAP IC50. The data set is classed as biochemical. The protocol:
as §1
Fluorescence-detected RNA polymerase assays with M. tuberculosis RNA polymerase were performed as in Example 17.1, using reaction mixtures containing (20 μl): 0-100 nM test salt, 75 nM M. tuberculosis RNA polymerase core enzyme, 300 nM M. tuberculosis σ^A, 20 nM 384 bp DNA fragment containing the bacteriophage T4 N25 promoter, 100 μM ATP, 100 μM GTP, 100 μM UTP, 100 μM CTP, 40 mM Tris-HCl, pH 8.0, 80 mM NaCl, 5 mM MgCl2, 2.5 mM DTT, and 12.7% glycerol. IC50 is defined as the concentration of inhibitor resulting in 50% inhibition of RNA polymerase activity.

Data set [2] can be described thus: physchem. The data set is classed as physicochemical. To be noted: for solubility at 2 h: 37 °C, pH 7.4, aqueous buffer, kinetic from dmso stock. The protocol:
Serial dilutions of test articles were prepared in dimethyl sulfoxide at 100× the final concentration. Test article solutions and blanks were diluted 100× into phosphate-buffered saline (PBS; 0.01 M sodium phosphate, pH 7.4, 137 mM NaCl, and 3 mM KCl) in a 96-well plate and mixed. After 2 h at 37° C., the presence of precipitate was detected by turbidity (absorbance at 540 nm). An absorbance value of greater than “mean+3xSD of the blank” (after subtracting background) was considered an indication of turbidity. The solubility limit was reported as the highest tested concentration with no evidence of turbidity.

The test system of data set [3] is Mycobacterium tuberculosis H37Rv. In words: Inhibition of bacterial growth, microplate Alamar Blue assay, M. tuberculosis. To be noted: read-out: in vitro antibacterial activity M. tuberculosis H37Rv MIC. The data set is classed as cell-based. On the technique in general: The colour change of resazurin is a common sign of viable cells or microbes.
Data set [4] relates to Escherichia coli D21f2tolC. The experiment in a line: Inhibition of bacterial growth, spiral gradient endpoint assay, E. coli. The note with it: read-out: in vitro antibacterial activity E. coli D21f2tolC MIC. The data set is classed as cell-based. The source says: (§2) Minimum inhibitory concentrations (MICs) for Staphylococcus aureus ATCC 12600 and Escherichia coli D21f2tolC were quantified using spiral gradient endpoint assays, essentially as described [Wallace, A. and Corkill, J. (1989) Application of the spiral plating method to study antimicrobial action. J. Microbiol. Meths. 10, 303-310; Paton, J., Holt, A., and Bywater, M. (1990) Measurement of MICs of antibacterial agents by spiral gradient endpoint compared with conventional dilution methods. Int. J. Exp. Clin. Chemother. 3, 31-38; Schalkowsky S. (1994) Measures of susceptibility from a spiral gradient of drug concentrations. Adv. Exp. Med. Biol. 349, 107-120]. Assays employed exponential-gradient plates containing 150 mm×4 mm Mueller-Hinton II cation-adjusted agar and 0.4-100 μg/ml of test salt. Plates were prepared using an Autoplate 4000 spiral plater (Spiral Biotech, Inc.). Saturated overnight cultures were swabbed radially onto plates, and plates were incubated for 16 h at 37° C. For each culture, the streak length was measured using a clear plastic template (Spiral Biotech, Inc.), the test-salt concentration at the streak endpoint was calculated using the program SGE (Spiral Biotech, Inc.), and the MIC was defined as the calculated test-salt concentration at the streak endpoint.

Data set [5] has as its target E. coli RNA polymerase σ70 holoenzyme (Escherichia coli (strain K12), UniProt P0A8T7+P0A8V2). The experiment in a line: Fluorescence-detected assay of inhibition of Escherichia coli RNA polymerase. To be noted: read-out: RNAP-inhibitory activity E. coli RNAP IC50. The data set is classed as biochemical. The protocol:
as §1

A short description of data set [6]: physchem. The data set is classed as physicochemical. The note with it: for solubility: thermodynamic from solid. The protocol: Starting with 0.5-5 mg test compound in a glass vial at room temperature, successive cycles of addition of vehicle, vortexing 15 s, and inspection were performed until all test compound dissolved. Vehicles were: 0.01 M sodium phosphate (pH 7.4); 5% dextrose in 0.01 M sodium phosphate (pH 7.4); and 0.5% carboxymethylcellulose (CMC)/0.5% Tween-80 (pH 8.4).

The test system of data set [7] is Staphylococcus aureus ATCC 12600. The experiment in a line: Inhibition of bacterial growth, spiral gradient endpoint assay, S. aureus. The data set is classed as cell-based. The note with it: ATCC12600, read-out: in vitro antibacterial activity S. aureus ATCC12600 MIC.
Description: as §2

Setting [8] is: pH 8.4, aqueous with cosolvent or surfactant or cyclodextrin.

Each structure is given as a SMILES string. ≈ marks a conversion by molar mass, not a printed value.

For orientation: IC50 means the concentration that inhibits the measured activity by half. As usually defined, the solubility is the concentration that dissolves in the medium under given conditions. Lower therefore signals little dissolved substance. A word on the MIC: it is the lowest concentration found to suppress growth. Regarding `[2H]C([2H])([2H])OC(=O)N/C=C/CCCc1cc(O)c(C(=O)/C(C)=C/c2cnc(Oc3ccc(F)cc3)s2)c(=O)o1` [Example 8], the results for the concentration for half-maximal inhibition (IC50) (on S. aureus RNA polymerase; in data set [1]; in data set [5]) were 0.06 µM, 0.02 µM and 0.004 µM, respectively. Moreover, the solubility at 2 h in “physchem [2]” stood at 100 µg/mL (≈ 193 µM). The MIC in data set [3] was found to be 0.8 µg/mL (≈ 1.55 µM); in data set [4], 0.06 µg/mL (≈ 0.116 µM); in data set [7] it was 0.3 µg/mL (≈ 0.58 µM). In addition, the solubility was less than 100 µg/mL in the data set “physchem [6]” (pH 7.4, aqueous buffer); less than 100 µg/mL in the data set “physchem [6]” (pH 7.4, saline or isotonic); less than 100 µg/mL in “physchem [6]” (setting [8]).
Take `[2H]C([2H])([2H])OC(=O)N/C=C/CCCc1cc([O-])c(C(=O)/C(C)=C/c2cnc(Oc3ccc(F)cc3)s2)c(=O)o1.[Na+]` [Example 9]: the IC50 (at S. aureus RNA polymerase; in data set [1]) was 0.03 µM in each case. The “times more soluble than the corresponding free acid (Example 8)” value in “physchem [2]” is recorded as no less than 50 times. In “physchem [2]”, the solubility at 2 h is no less than 5000 µg/mL. For the same compound, the minimum inhibitory concentration (MIC) in data set [3] stood at 0.4 µg/mL; in data set [4], 0.04 µg/mL; in data set [7] it was 0.4 µg/mL. Further, the “concentration at which it can be formulated” value in the data set “physchem [6]” was no less than 10000 µg/mL. Further, the solubility worked out at 10000 µg/mL in “physchem [6]” (pH 7.4, aqueous buffer); 5000 µg/mL in the data set “physchem [6]” (pH 7.4, saline or isotonic); 20000 µg/mL in “physchem [6]” (setting [8]).
Regarding `[2H]C([2H])([2H])OC(=O)N/C=C/CCCc1cc([O-])c(C(=O)/C(C)=C/c2cnc(Oc3ccc(F)cc3)s2)c(=O)o1.[K+]` [Example 10], the MIC worked out at 0.03 µg/mL in data set [4] and 0.2 µg/mL in data set [7]. Moreover, the half-inhibitory concentration (IC50) in data set [5] was 0.006 µM.
Regarding `[2H]C([2H])([2H])OC(=O)N/C=C/CCCc1cc(O)c(C(=O)/C(C)=C/c2cnc(Oc3ccc(F)c(Cl)c3)s2)c(=O)o1` [Example 11], the IC50 on S. aureus RNA polymerase amounted to 0.001 µM; in data set [1] it was 0.03 µM; in data set [5], 0.003 µM. Also, the results for the MIC in data set [3], in data set [4] and in data set [7] were 0.8 µg/mL (≈ 1.45 µM), 0.02 µg/mL (≈ 0.0362 µM) and 0.2 µg/mL (≈ 0.362 µM), respectively.
For the compound `[2H]C([2H])([2H])OC(=O)N/C=C/CCCc1cc([O-])c(C(=O)/C(C)=C/c2cnc(Oc3ccc(F)c(Cl)c3)s2)c(=O)o1.[Na+]` [Example 12], the IC50 at S. aureus RNA polymerase turned out to be 0.003 µM; in data set [1], 0.03 µM. For the same compound, the MIC worked out at 0.8 µg/mL in data set [3], 0.03 µg/mL in data set [4] and 0.2 µg/mL in data set [7].
As to `[2H]C([2H])([2H])OC(=O)N/C=C/CCCc1cc(O)c(C(=O)/C(C)=C/c2cnc(Oc3ccc(-c4ccccc4)cc3)s2)c(=O)o1` [Example 13], the figures for the half-inhibitory concentration (IC50) (at S. aureus RNA polymerase; in data set [1]; in data set [5]) were 0.01 µM, greater than 6 µM and 0.02 µM, respectively. Also, the MIC in data set [3] is greater than 50 µg/mL; in data set [4] it was 0.03 µg/mL (≈ 0.0521 µM); in data set [7], greater than 8 µg/mL.
With `[2H]C([2H])([2H])OC(=O)N/C=C/CCCc1cc([O-])c(C(=O)/C(C)=C/c2cnc(Oc3ccc(-c4ccccc4)cc3)s2)c(=O)o1.[Na+]` [Example 14], the concentration for half-maximal inhibition (IC50) at S. aureus RNA polymerase is 0.03 µM; in data set [1], greater than 6 µM; in data set [5], 0.05 µM. The results for the minimal inhibitory concentration (MIC) in data set [3], in data set [4] and in data set [7] were greater than 50 µg/mL, 0.03 µg/mL and greater than 8 µg/mL, respectively.

The record behind these values is patent US20250115594A1, “ANTIBACTERIAL AGENTS: SOLUBLE SALTS AND AQUEOUS FORMULATIONS OF PYRONINS” (priority 2018, published 2025).
